The text below walks through data of patent publication US10745388B2, “Indazole compounds and uses thereof” (Incyte Corporation, priority 2018, dated 2020).

For orientation: Ki means the equilibrium dissociation constant of an inhibitor or competing ligand from its target. Higher therefore signals a looser hold on the target.

This experiment deals with HPK1 (Homo sapiens (Human), UniProt Q92918). Description: HPK1 Kinase Binding Assay. Conditions: LanthaScreen tracer 222 binding, active HPK1, one hour incubation at 25° C. On the procedure: A stock solution of 1 mM test compound was prepared in DMSO. The compound plate was prepared by 3-fold and 11-point serial dilutions. 0.1 μL of the compound in DMSO was transferred from the compound plate to the white 384 well polystyrene plates. The assay buffer contained 50 mM HEPES, pH 7.5, 0.01% Tween-20, 5 mM MgCl2, 0.01% BSA, and 5 mM DTT. 5 μL of 4 nM active HPK1 (SignalChem M23-11G) prepared in the buffer was added to the plate. The enzyme concentration given was based on the given stock concentration reported by the vender. 5 μL of 18 nM tracer 222 (ThermoFisher PV6121) and 4 nM LanthaScreen Eu-Anti GST antibody (ThermoFisher PV5595) were added. After one hour incubation at 25° C., the plates were read on a PHERAstar FS plate reader (BMG Labtech). Ki values were determined.
HPK1, sequence (Q92918 1-346 limits assumed): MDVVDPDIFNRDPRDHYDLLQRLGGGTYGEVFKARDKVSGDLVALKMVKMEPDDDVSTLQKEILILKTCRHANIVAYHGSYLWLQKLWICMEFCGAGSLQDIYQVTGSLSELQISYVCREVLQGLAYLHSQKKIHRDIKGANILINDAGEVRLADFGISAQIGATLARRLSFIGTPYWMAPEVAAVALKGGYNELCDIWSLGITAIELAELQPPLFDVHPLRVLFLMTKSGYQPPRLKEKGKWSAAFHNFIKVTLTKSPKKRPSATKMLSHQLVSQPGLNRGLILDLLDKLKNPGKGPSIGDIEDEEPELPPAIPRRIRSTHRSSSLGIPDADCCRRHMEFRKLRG
Background: Time-resolved FRET reads energy transfer from a long-lived donor to a nearby acceptor.
With `COc1cccc(F)c1-c1nccc(C(=O)Nc2ccc3nn(C)cc3c2N(C)CCO)n1` [1, Peak 1], the Ki is at most 100 nM.

As to `COc1cccc(F)c1-c1nccc(C(=O)Nc2ccc3c(cnn3C)c2N(C)C2CCN(C)CC2)n1` [Example 2, 2-(2-Fluoro-6-methoxyphenyl)-N-(1-methyl-4-(methyl(1-methylpiperidin-4-yl)amino)-1H-indazol-5-yl)pyrimidine-4-carboxamide], the Ki was at most 100 nM.

`COc1cccc(F)c1-c1nccc(C(=O)Nc2ccc3c(cnn3C)c2N(C)C2CC2)n1` [Example 3, N-(4-(Cyclopropyl(methyl)amino)-1-methyl-1H-indazol-5-yl)-2-(2-fluoro-6-methoxyphenyl)pyrimidine-4-carboxamide] registered a Ki of at most 100 nM.

The molecule `COc1cccc(F)c1-c1nccc(C(=O)Nc2ccc3c(cnn3C)c2N(C)C)n1` [Example 4, N-(4-(Dimethylamino)-1-methyl-1H-indazol-5-yl)-2-(2-fluoro-6-methoxyphenyl)pyrimidine-4-carboxamide] registered a Ki of at most 100 nM.

`COc1cccc(F)c1-c1nccc(C(=O)Nc2ccc3c(cnn3C)c2N(C)Cc2ccccc2)n1` [Example 5, N-(4-(Benzyl(methyl)amino)-1-methyl-1H-indazol-5-yl)-2-(2-fluoro-6-methoxyphenyl)pyrimidine-4-carboxamide] gave an inhibition constant (Ki) of at most 100 nM.

Molecule `COc1cccc(F)c1-c1nccc(C(=O)Nc2ccc3c(cnn3C)c2N(C)Cc2cccnc2)n1` [Example 6, 2-(2-Fluoro-6-methoxyphenyl)-N-(1-methyl-4-(methyl(pyridin-3-ylmethyl)amino)-1H-indazol-5-yl)pyrimidine-4-carboxamide] had a Ki of at most 100 nM.

`COc1cccc(F)c1-c1nccc(C(=O)Nc2ccc3c(cnn3C)c2N(C)C2CCOCC2)n1` [Example 7] registered a Ki of at most 100 nM.

The molecule `COc1cccc(F)c1-c1nccc(C(=O)Nc2ccc3c(cnn3C)c2N(C)CC(C)(C)O)n1` [Example 8, 2-(2-Fluoro-6-methoxyphenyl)-N-(4-((2-hydroxy-2-methylpropyl)(methyl)amino)-1-methyl-1H-indazol-5-yl)pyrimidine-4-carboxamide] showed a Ki of at most 100 nM.

In turn, `COc1cccc(F)c1-c1nccc(C(=O)Nc2ccc3c(cnn3C)c2N(C)CC2CCCO2)n1` (stereo not drawn) [Example 9, 2-(2-Fluoro-6-methoxyphenyl)-N-(1-methyl-4-(methyl((tetrahydrofuran-2-yl)methyl)amino)-1H-indazol-5-yl)pyrimidine-4-carboxamide] gave a Ki of at most 100 nM.

For `COc1cccc(F)c1-c1nccc(C(=O)Nc2ccc3c(cnn3C)c2N(C)CC2(O)COC2)n1` [Example 10, 2-(2-Fluoro-6-methoxyphenyl)-N-(4-(((3-hydroxyoxetan-3-yl)methyl)(methyl)amino)-1-methyl-1H-indazol-5-yl)pyrimidine-4-carboxamide], the Ki is 500 to 5000 nM.

Regarding `COc1cccc(F)c1-c1nccc(C(=O)Nc2ccc3c(cnn3C)c2N(C)[C@H]2CCNC2)n1` [Example 11, (S)-2-(2-Fluoro-6-methoxyphenyl)-N-(1-methyl-4-(methyl(pyrrolidin-3-yl)amino)-1H-indazol-5-yl)pyrimidine-4-carboxamide], the Ki is at most 100 nM.

The molecule `COc1cccc(F)c1-c1nccc(C(=O)Nc2ccc3c(cnn3C)c2N(C)[C@H]2CCN(C(C)=O)C2)n1` [Example 12, (S)—N-(4-((1-acetylpyrrolidin-3-yl)(methyl)amino)-1-methyl-1H-indazol-5-yl)-2-(2-fluoro-6-methoxyphenyl)pyrimidine-4-carboxamide] yielded a Ki of at most 100 nM.

In the case of `COc1cccc(F)c1-c1nccc(C(=O)Nc2ccc3c(cnn3C)c2N(C)[C@H]2CCN(S(C)(=O)=O)C2)n1` [Example 13, (S)-2-(2-Fluoro-6-methoxyphenyl)-N-(1-methyl-4-(methyl(1-(methylsulfonyl)pyrrolidin-3-yl)amino)-1H-indazol-5-yl)pyrimidine-4-carboxamide], the Ki is at most 100 nM.

The molecule `COc1cccc(F)c1-c1nccc(C(=O)Nc2ccc3c(cnn3C)c2N(C)[C@H]2CCN(C(=O)N(C)C)C2)n1` [Example 14, (S)—N-(4-((1-(Dimethylcarbamoyl)pyrrolidin-3-yl)(methyl)amino)-1-methyl-1H-indazol-5-yl)-2-(2-fluoro-6-methoxyphenyl)pyrimidine-4-carboxamide] returned a Ki of at most 100 nM.

`CNCc1ccccc1-c1c(NC(=O)c2ccnc(-c3c(F)cccc3OC)n2)ccc2c1cnn2C` [Example 15, 2-(2-Fluoro-6-methoxyphenyl)-N-(1-methyl-4-(2-((methylamino)methyl)phenyl)-1H-indazol-5-yl)pyrimidine-4-carboxamide] had a Ki of at most 100 nM.
